Measurements published in article PMC12155096 (International Journal of Molecular Sciences, 2025).
Where two headings read alike, the source gives them in different places.

Assays:
CYP3A4 [1] = target: T1, CYP3A4 (Homo sapiens, UniProt P08684)
human CYP1A2 [2] = target: T2, human CYP1A2 (Homo sapiens, UniProt P05177); details: for CYP1A2 Efficacy (in parenthesis): human
T2 sequence (P05177 1-516): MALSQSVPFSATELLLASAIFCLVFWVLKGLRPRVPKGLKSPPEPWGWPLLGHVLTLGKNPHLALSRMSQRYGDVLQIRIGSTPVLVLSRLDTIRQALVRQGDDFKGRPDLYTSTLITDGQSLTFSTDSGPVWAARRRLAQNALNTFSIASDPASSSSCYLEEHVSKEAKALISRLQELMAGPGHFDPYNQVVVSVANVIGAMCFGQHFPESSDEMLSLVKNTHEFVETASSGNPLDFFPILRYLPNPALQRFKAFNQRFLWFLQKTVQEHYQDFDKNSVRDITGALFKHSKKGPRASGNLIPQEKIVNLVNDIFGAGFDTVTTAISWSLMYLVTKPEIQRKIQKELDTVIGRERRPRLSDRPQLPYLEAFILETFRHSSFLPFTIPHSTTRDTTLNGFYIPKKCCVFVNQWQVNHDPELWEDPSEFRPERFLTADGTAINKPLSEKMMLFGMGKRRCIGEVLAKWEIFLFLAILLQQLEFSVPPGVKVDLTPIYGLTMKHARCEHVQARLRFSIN

[3] = target: Photinus pyralis (firefly) luciferase (Photinus pyralis, UniProt P08659); assay: biochemical; assay type: biochemical
Sequence of Photinus pyralis (firefly) luciferase (P08659 whole entry): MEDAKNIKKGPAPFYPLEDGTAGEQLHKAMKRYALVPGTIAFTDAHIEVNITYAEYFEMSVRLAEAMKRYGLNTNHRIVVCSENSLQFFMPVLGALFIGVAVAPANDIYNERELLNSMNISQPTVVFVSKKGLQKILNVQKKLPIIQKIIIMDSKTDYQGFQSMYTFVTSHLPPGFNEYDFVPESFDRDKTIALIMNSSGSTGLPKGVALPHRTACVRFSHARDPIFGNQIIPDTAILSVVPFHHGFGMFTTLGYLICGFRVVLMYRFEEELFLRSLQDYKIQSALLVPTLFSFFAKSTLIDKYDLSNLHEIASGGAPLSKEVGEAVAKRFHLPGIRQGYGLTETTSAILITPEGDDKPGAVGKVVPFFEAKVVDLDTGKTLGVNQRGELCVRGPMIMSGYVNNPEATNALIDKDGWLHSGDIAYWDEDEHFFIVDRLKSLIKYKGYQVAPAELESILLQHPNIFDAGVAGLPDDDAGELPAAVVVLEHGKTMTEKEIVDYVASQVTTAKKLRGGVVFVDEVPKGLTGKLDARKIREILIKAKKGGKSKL

human CYP1A2 [4] = target: T2, human CYP1A2; assay: biochemical; details: CYP1A2 IC50 (half-maximal inhibitory concentration)
human CYP2C19 [5] = target: T3, human CYP2C19 (Homo sapiens, UniProt P33261); assay: biochemical; details: CYP2C19 IC50 (half-maximal inhibitory concentration)
T3 sequence (P33261 whole entry): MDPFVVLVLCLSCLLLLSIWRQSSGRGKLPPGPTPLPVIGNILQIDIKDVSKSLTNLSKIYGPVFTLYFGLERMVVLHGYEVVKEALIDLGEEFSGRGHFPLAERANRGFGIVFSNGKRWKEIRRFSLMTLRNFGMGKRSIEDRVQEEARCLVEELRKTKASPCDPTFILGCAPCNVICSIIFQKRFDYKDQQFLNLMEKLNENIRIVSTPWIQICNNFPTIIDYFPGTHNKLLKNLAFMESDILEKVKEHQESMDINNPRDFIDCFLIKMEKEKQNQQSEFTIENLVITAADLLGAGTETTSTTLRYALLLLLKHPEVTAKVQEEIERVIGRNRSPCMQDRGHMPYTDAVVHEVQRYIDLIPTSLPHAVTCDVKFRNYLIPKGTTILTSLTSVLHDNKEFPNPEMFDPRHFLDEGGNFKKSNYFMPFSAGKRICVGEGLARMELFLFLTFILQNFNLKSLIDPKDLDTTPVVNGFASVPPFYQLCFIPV

human CYP2D6 [6] = target: T4, human CYP2D6 (Homo sapiens, UniProt P10635); details: for CYP2D6 Efficacy (in parenthesis): human
T4 sequence (P10635 whole entry): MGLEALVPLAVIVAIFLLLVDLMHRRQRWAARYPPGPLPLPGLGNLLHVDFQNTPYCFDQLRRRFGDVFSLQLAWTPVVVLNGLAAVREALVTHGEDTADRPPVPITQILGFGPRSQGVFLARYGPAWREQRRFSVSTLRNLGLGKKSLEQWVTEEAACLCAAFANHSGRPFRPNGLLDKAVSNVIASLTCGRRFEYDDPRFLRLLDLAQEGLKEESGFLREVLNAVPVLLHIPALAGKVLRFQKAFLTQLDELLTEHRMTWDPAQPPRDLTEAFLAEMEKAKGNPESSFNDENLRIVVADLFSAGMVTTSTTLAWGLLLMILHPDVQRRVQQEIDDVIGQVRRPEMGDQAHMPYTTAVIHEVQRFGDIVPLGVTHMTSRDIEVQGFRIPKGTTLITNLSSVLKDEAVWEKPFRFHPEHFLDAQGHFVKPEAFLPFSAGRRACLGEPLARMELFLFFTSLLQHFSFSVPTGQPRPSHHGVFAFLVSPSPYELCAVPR

human CYP2C9 [7] = target: T5, human CYP2C9 (Homo sapiens, UniProt P11712); details: for CYP2C9 Efficacy (in parenthesis): human
T5 sequence (P11712 whole entry): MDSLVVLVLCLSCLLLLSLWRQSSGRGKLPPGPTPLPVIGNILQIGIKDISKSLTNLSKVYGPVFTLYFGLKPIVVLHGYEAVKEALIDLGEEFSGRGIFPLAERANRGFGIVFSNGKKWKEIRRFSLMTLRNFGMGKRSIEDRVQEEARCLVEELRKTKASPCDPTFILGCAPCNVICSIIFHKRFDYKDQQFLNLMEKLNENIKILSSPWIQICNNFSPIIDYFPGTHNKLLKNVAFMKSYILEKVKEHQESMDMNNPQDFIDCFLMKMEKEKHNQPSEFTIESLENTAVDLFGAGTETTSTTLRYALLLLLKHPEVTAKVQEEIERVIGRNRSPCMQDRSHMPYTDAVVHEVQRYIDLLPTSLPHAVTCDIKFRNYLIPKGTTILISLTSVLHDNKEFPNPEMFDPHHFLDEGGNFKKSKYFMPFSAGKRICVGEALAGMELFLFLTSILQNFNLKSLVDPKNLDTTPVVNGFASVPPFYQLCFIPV

human CYP2D6 [8] = target: T4, human CYP2D6; assay: biochemical; details: CYP2D6 IC50 (half-maximal inhibitory concentration)
human CYP2C19 [9] = target: T3, human CYP2C19; details: for CYP2C19 Efficacy (in parenthesis): human
human CYP2C9 [10] = target: T5, human CYP2C9; assay: biochemical; details: for IC50: CYP2C9 IC50 (half-maximal inhibitory concentration)
CYP3A4 [11] = target: T1, CYP3A4; assay: biochemical
[12] = CYP2C9 AC50 (half-maximal activity concentration)
[13] = CYP3A4 AC50 (half-maximal activity concentration)

T1 sequence (P08684 whole entry): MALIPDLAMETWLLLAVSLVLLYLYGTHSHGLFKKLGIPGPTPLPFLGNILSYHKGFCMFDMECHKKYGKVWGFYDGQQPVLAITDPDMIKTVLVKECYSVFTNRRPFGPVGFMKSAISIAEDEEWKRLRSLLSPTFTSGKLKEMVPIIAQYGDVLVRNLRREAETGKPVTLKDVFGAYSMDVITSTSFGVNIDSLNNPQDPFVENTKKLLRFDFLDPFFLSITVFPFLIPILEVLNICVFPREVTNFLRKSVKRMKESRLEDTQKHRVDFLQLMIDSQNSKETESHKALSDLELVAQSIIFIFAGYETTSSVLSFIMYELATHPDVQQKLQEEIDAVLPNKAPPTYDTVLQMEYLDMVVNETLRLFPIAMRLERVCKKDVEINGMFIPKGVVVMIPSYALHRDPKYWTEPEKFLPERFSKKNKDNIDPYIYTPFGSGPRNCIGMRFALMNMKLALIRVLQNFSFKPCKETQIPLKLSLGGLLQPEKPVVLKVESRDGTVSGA

Structure (SMILES)	AC50 (human CYP2C9 [10]; [12])	CYP1A2 AC50 (half-maximal activity concentration) (human CYP1A2 [2])	AC50 (CYP3A4 [11]; [13])	CYP2D6 AC50 (half-maximal activity concentration) (human CYP2D6 [6])	CYP2C19 AC50 (half-maximal activity concentration) (human CYP2C19 [9])	also measured
O=[N+]([O-])c1ccc2ccc3cccc4ccc1c2c34 [1-Nitropyrene]	–	–	–	–	–	CYP3A4 IC50 (half-maximal inhibitory concentration) (CYP3A4 [1]): Inactive; CYP1A2 Efficacy (in parenthesis) (human CYP1A2 [2]): 0.27 ± 0.05 (-96 ± 5) %; Luciferase IC50 (half-maximal inhibitory concentration) [3]: Inactive; IC50 (human CYP1A2 [4]): 0.27 µM; IC50 (human CYP2C19 [5]): 14 µM; CYP2D6 Efficacy (in parenthesis) (human CYP2D6 [6]): 33 ± 2.23 (-91 ± 22) %; CYP2C9 IC50 (half-maximal inhibitory concentration) (human CYP2C9 [7]): Inactive; IC50 (human CYP2D6 [8]): 33 µM; CYP2C19 Efficacy (in parenthesis) (human CYP2C19 [9]): 14.04 ± 11.88 (-69 ± 19) %
Clc1ccccc1-c1ccccc1Cl [2,2'-Dichlorobiphenyl]	39 µM	Inconclusive inhibitor	14.6 µM	Inactive	Inconclusive activator	–
CC(Oc1cc(Cl)c(Cl)cc1Cl)C(=O)O (stereo not shown) [2-(2,4,5-Trichlorophenoxy)propionic acid]	28.4 µM	Inactive	76.9 µM	Inactive	Inactive	–
O=C(O)c1cc(Cl)cc(Cl)c1O [3,5-Dichlorosalicylic acid]	–	Inconclusive inhibitor	–	Inactive	Inactive	AC50 (human CYP2C9 [10]): 28.3 µM; AC50 (CYP3A4 [11]): 37 µM
N#Cc1cc(Br)c(O)c(Br)c1 [Bromoxynil]	18.7 µM	Inactive	29.6 µM	Inactive	Inactive	–
Cc1ccc(S(=O)(=O)NCl)cc1 [Chloramine-T trihydrate]	81.6 µM	Inconclusive inhibitor	67.9 µM	Inactive	Inconclusive inhibitor	–
CC(=O)OCC(=O)[C@@]12N=C(C)O[C@@H]1C[C@H]1[C@@H]3CCC4=CC(=O)C=C[C@]4(C)[C@H]3[C@@H](O)C[C@@]12C [Deflazacort]	60.9 µM	Inactive	13.2 µM	Inactive	Inactive	–
OC(c1ccc(Cl)cc1)(c1ccc(Cl)cc1)C(Cl)(Cl)Cl [Dicofol]	–	–	–	–	–	CYP3A4 IC50 (half-maximal inhibitory concentration) (CYP3A4 [1]): Inactive; IC50 (human CYP2C9 [10]): 4.89 µM; CYP1A2 Efficacy (in parenthesis) (human CYP1A2 [2]): 8.5 ± 4.94 (-106 ± 9) %; Luciferase IC50 (half-maximal inhibitory concentration) [3]: Inactive; IC50 (human CYP1A2 [4]): 8.5 µM; IC50 (human CYP2C19 [5]): 0.29 µM; CYP2D6 Efficacy (in parenthesis) (human CYP2D6 [6]): 44.8 ± 22.68 (-69 ± 14) %; CYP2C9 Efficacy (in parenthesis) (human CYP2C9 [7]): 4.89 ± 4.11 (-104 ± 9) %; IC50 (human CYP2D6 [8]): 44.8 µM; CYP2C19 Efficacy (in parenthesis) (human CYP2C19 [9]): 0.29 ± 0.44 (-153 ± 1) %
CCC(=O)Oc1ccc(/C(CC)=C(\CC)c2ccc(OC(=O)CC)cc2)cc1 [Diethylstilbestrol dipropionate]	21.2 µM	Inactive	22.9 µM	Inactive	Inactive	–
CC(=O)OCC(=O)[C@@]1(OC(C)=O)[C@@H](C)C[C@H]2[C@@H]3C[C@H](F)C4=CC(=O)C=C[C@]4(C)[C@@]3(F)[C@@H](O)C[C@@]21C [Diflorasone diacetate]	19 µM	Inactive	4.74 µM	Inactive	Inconclusive activator	–
CC(C)COC(=O)CCCCC(=O)OCC(C)C [Diisobutyl adipate]	–	Inconclusive inhibitor	–	Inactive	Inactive	AC50 (human CYP2C9 [10]): 38 µM; AC50 (CYP3A4 [11]): 11.7 µM
CN(C(=O)C(Cl)Cl)c1ccc(OC(=O)c2ccco2)cc1 [Diloxanide furoate]	15.5 µM	Inactive	25.3 µM	Inconclusive	Inconclusive inhibitor	–
O=C(NC(=O)c1c(F)cccc1F)Nc1ccc(Oc2ccc(C(F)(F)F)cc2Cl)cc1F [Flufenoxuron]	17.8 µM	Inactive	18.6 µM	Inactive	Inconclusive	–
Cc1ccc(Cl)c(Nc2ccccc2C(=O)O)c1Cl [Meclofenamate sodium]	24.2 µM	Inactive	38.9 µM	Inconclusive inhibitor	Inactive	–
Cc1cccc(Nc2ccccc2C(=O)O)c1C [Mefenamic acid]	33 µM	Inconclusive inhibitor	73.9 µM	Inactive	Inconclusive inhibitor	–
C[C@]12C=CC(=O)C=C1CC[C@@H]1[C@@H]2CC[C@@]2(C)[C@H]1CC[C@]2(C)O [Methandrostenolone]	34.7 µM	Inactive	2.65 µM	Inactive	Inactive	–
CCCC(Cn1cncn1)c1ccc(Cl)cc1Cl (stereo not shown) [Penconazole]	–	–	–	–	–	CYP3A4 IC50 (half-maximal inhibitory concentration) (CYP3A4 [1]): Inactive; IC50 (human CYP2C9 [10]): 5.66 µM; CYP1A2 Efficacy (in parenthesis) (human CYP1A2 [2]): 23.57 ± 4.24 (-101 ± 7) %; Luciferase IC50 (half-maximal inhibitory concentration) [3]: Inactive; IC50 (human CYP1A2 [4]): 23.6 µM; IC50 (human CYP2C19 [5]): 0.14 µM; CYP2D6 Efficacy (in parenthesis) (human CYP2D6 [6]): 43.51 ± 17.21 (-88 ± 16) %; CYP2C9 Efficacy (in parenthesis) (human CYP2C9 [7]): 5.66 ± 0.65 (-101 ± 4) %; IC50 (human CYP2D6 [8]): 43.5 µM; CYP2C19 Efficacy (in parenthesis) (human CYP2C19 [9]): 0.14 ± 0.02 (-137 ± 5) %
C[C@@H]1O[C@@H](O[C@@H]2C=C3CC[C@@H]4[C@H](CC[C@]5(C)[C@@H](c6ccc(=O)oc6)CC[C@]45O)[C@@]3(C)CC2)[C@H](O)[C@H](O)[C@H]1O [Proscillaridin]	–	Inactive	33.4 µM	Inactive	Inconclusive activator	–
Fc1ccc(Oc2ccnc3cc(Cl)cc(Cl)c23)cc1 [Quinoxyfen]	–	–	–	–	–	CYP3A4 IC50 (half-maximal inhibitory concentration) (CYP3A4 [1]): Inactive; IC50 (human CYP2C9 [10]): 23.2 µM; CYP1A2 Efficacy (in parenthesis) (human CYP1A2 [2]): 0.53 ± 0.32 (-98 ± 2) %; IC50 [3]: 59.2 µM; IC50 (human CYP1A2 [4]): 0.53 µM; IC50 (human CYP2C19 [5]): 13.3 µM; CYP2D6 Efficacy (in parenthesis) (human CYP2D6 [6]): 37.02 ± 2.51 (-71 ± 14) %; CYP2C9 Efficacy (in parenthesis) (human CYP2C9 [7]): 23.18 ± 7.46 (-103 ± 2) %; IC50 (human CYP2D6 [8]): 37 µM; CYP2C19 Efficacy (in parenthesis) (human CYP2C19 [9]): 13.35 ± 5.76 (-134 ± 20) %
Cc1c(C(=O)NN2CCCCC2)nn(-c2ccc(Cl)cc2Cl)c1-c1ccc(Cl)cc1 [Rimonabant]	–	Inactive	–	–	–	AC50 (CYP3A4 [11]): 4.96 ± 0.93 µM
O=S(=O)(c1ccc(Cl)cc1)c1cc(Cl)c(Cl)cc1Cl [Tetradifon]	–	–	–	–	–	CYP3A4 IC50 (half-maximal inhibitory concentration) (CYP3A4 [1]): Inactive; IC50 (human CYP2C9 [10]): 28.3 µM; CYP1A2 Efficacy (in parenthesis) (human CYP1A2 [2]): 31.85 ± 3.66 (-38 ± 3) %; Luciferase IC50 (half-maximal inhibitory concentration) [3]: Inactive; IC50 (human CYP1A2 [4]): 31.9 µM; IC50 (human CYP2C19 [5]): 0.27 µM; CYP2D6 Efficacy (in parenthesis) (human CYP2D6 [6]): 49.42 ± 19.58 (-34 ± 2) %; CYP2C9 Efficacy (in parenthesis) (human CYP2C9 [7]): 28.26 ± 0 (-59 ± 2) %; IC50 (human CYP2D6 [8]): 49.4 µM; CYP2C19 Efficacy (in parenthesis) (human CYP2C19 [9]): 0.27 ± 0.02 (-131 ± 10) %
CC[C@H]1OC(=O)[C@H](C)[C@@H](O[C@H]2C[C@@](C)(OC)[C@@H](O)[C@H](C)O2)[C@H](C)[C@@H](O[C@@H]2O[C@H](C)C[C@H](N(C)C)[C@H]2O)[C@](C)(O)C[C@@H](C)C(=O)[C@H](C)[C@@H](O)[C@]1(C)O [erythromycin, reference compound]	–	–	–	–	–	IC50 (CYP3A4 [11]; IC50 CYP3A4 assay): 0.3 µM
Clc1ccc(C(c2ccc(Cl)cc2)C(Cl)Cl)cc1 [p,p'-DDD]	–	–	–	–	–	CYP3A4 IC50 (half-maximal inhibitory concentration) (CYP3A4 [1]): Inactive; IC50 (human CYP2C9 [10]): 5.55 µM; CYP1A2 Efficacy (in parenthesis) (human CYP1A2 [2]): 6.46 ± 0.74 (-96 ± 1) %; Luciferase IC50 (half-maximal inhibitory concentration) [3]: Inactive; IC50 (human CYP1A2 [4]): 6.46 µM; IC50 (human CYP2C19 [5]): 0.12 µM; CYP2D6 Efficacy (in parenthesis) (human CYP2D6 [6]): 59 ± 16.44 (-79 ± 23) %; CYP2C9 Efficacy (in parenthesis) (human CYP2C9 [7]): 5.55 ± 0.76 (-100 ± 3) %; IC50 (human CYP2D6 [8]): 59 µM; CYP2C19 Efficacy (in parenthesis) (human CYP2C19 [9]): 0.12 ± 0.06 (-136 ± 7) %
